Test results: patent US20240294572A1, “Antimicrobial Peptides” (priority 2021, published 2024)
In brackets after ≈: the same amount, converted by molar mass. Non-standard residues stand in square brackets, D forms with d. Residues, ends and D or L forms follow the SMILES beside them. *: point of attachment. Octanoyl = CCCCCCCC(=O)*

Assays:
[1] = tested on: human red blood cells (hRBCs); assay type: cell-based; settings: red cells of human, 1 h
Protocol: Hemolytic assays of peptides were performed as described (Lakshmaiah, et al. (2020) Proc. Natl. Acad. Sci., 117:19446-19454). Briefly, human red blood cells (hRBCs) were obtained from UNMC Blood Bank. The cells were washed 3× with isotonic saline (0.9% NaCl) and diluted to 2% (v/v). Peptides at various concentrations were added to the 2% blood cells and incubated at 37° C. for 1 hour. Post-incubation, the plates were spun at 2000 rpm for 10 minutes; aliquots of the supernatant were carefully transferred to a fresh 96-well microplate. The amount of cells lysed is proportional to the hemoglobin released and was measured at 545 nm using a ChroMate® microplate reader (Awareness Technology, FL). The percent lysis was calculated by assuming 100% release when human blood cells were treated with 1% Triton™ X-100, and 0% release when incubated with PBS. The peptide concentration that caused 50% lysis of hRBCs is defined as HC50. The cell selectivity index (CSI) was calculated as the ratio between HC50 and the MIC of the corresponding peptide against MRSA.

[2] = tested on: Klebsiella pneumonia ATCC 13883; test: Antibacterial broth microdilution MIC; assay type: cell-based
Protocol: (§1) The antibacterial activity of peptides was evaluated using a standard broth microdilution protocol (Clinical Laboratories Standards Institute (CLSI): M07-A10. Methods for Dilution Antimicrobial Susceptibility Tests for Bacteria that grow aerobically; Approved Standard, Tenth Edition, 2015) with minor modifications as described (Mishra, et al. (2019) Proc. Natl. Acad. Sci., 116:13517-13522). In brief, peptides (10 μL per well) with 2-fold dilutions were made in 96-well polystyrene microplates. Subsequently, the logarithmic phase bacterial cultures (i.e., optical density at 600 nm ˜0.5) were diluted to 0.001 OD and aliquoted to 90 μL per well. The plates were incubated overnight at 37°° C. Bacterial controls were treated with water, and the wells containing only the TSB media were used as blank. Positive controls included the parent peptide LL-37 as well as KR12. Post incubation, the plates were read at 630 nm using ChroMate® 4300 Microplate Reader (Awareness Technology, FL).

[3] = tested on: S. aureus USA400; assay type: cell-based
Protocol: as §1

[4] = tested on: S. aureus USA200; assay type: cell-based
Protocol: as §1

[5] = tested on: S. aureus Mu50; assay type: cell-based
Protocol: as §1

[6] = tested on: clinical strains of S. aureus, including USA200, USA400, Newman, and Mu50; assay type: cell-based
Protocol: as §1

[7] = tested on: S. aureus Newman; assay type: cell-based
Protocol: as §1

[8] = tested on: HaCaT cells; assay type: cell-based, human
Protocol: Peptides were assessed for potential cytotoxicity using HaCaT cells (Addexbio Technologies, CA). Briefly, cells were seeded at a density of 1×10^4 per well in a tissue culture 96-well plate. DMEM was supplemented with 10% fetal bovine serum (FBS) and incubated at 37° C. in a 5% CO2 atmosphere for 24 hours. Culture medium was aspirated and replaced with fresh serum free media. Cells were exposed to different concentrations of peptides for 1 hour at 37° C. in a 5% CO2 atmosphere. Post-incubation, the cells were washed and incubated with 100 μL of DMEM media containing 20 μL of MTS reagent for 2 hours at 37° C. Absorbance was read at 492 nm using a ChroMate® microplate reader (Awareness Technology, FL).

[9] = tested on: S. aureus USA300 LAC; assay type: cell-based
Protocol: as §1
(§2) To study the influence of medium conditions on the antimicrobial activity of peptides against S. aureus USA300, different pH, sodium chloride (NaCl), human sera were included into the antibacterial assays. Control experiments in TSB without any additions (pH 7.4) were set up in the same manner. In addition, antimicrobial activities of human LL-37, KR12, and C10-KR8d were compared in 10%, 50%, and 100% TSB as well as in TSB and MHB using E. coli ATCC 25922 and S. aureus USA300 LAC.

[10] = tested on: S. aureus USA300 LAC; test: Bacterial resistance development, multiple passage experiment; assay type: cell-based; settings: 14 passages/days at sub-MIC
Protocol: This experiment was performed similar to the MIC determination with a few modifications as described (Mishra, et al. (2019) Proc. Natl. Acad. Sci., 116:13517-13522). In short, an exponential phase S. aureus USA300 culture (i.e., optical density at 600 nm≈0.5) was diluted and partitioned into a 96-well polystyrene microplate with ˜10^5 bacteria per well (90 μL aliquots). After treatment with 10 μL of peptide or nafcillin solutions at various concentrations, microplates were incubated at 37° C. overnight and read on a ChroMate® 4300 Microplate Reader at 630 nm (Awareness Technology, FL). Of the wells with sub-MIC levels of the peptides that retained growth, approximately half of the control wells were again reinoculated in fresh TSB with sub-MIC concertation of peptides or antibiotics to attain exponential phase for MIC determination. Up to 15 serial passages of the bacteria cultures were conducted. The increase in the fold change (MIC on given passage/MIC recorded in first day of passage) was used to determine the degree of drug resistance.

[11] = tested on: S. aureus USA300 LAC; test: Bacterial membrane permeation (propidium iodide); assay type: cell-based; settings: 12.5 μM
Protocol: The experiment was performed as described with minor modifications (Mishra, et al. (2019) Proc. Natl. Acad. Sci., 116:13517-13522). Serially diluted 10×peptides (10 μL each well) were created in 96-well microtiter plates. Propidium iodide (2 μL) at a fixed concentration of 20 μM was added to each well followed by 88 μL of the exponential phase S. aureus USA300 culture (a final OD600˜0.1 in TSB media or PBS). Both daptomycin (98%, TSZChem, MA) and rifamycin (98%, Alfa Aesar, MA) were used as controls. The plate was incubated at 37° C. with continuous shaking at 100 rpm in a FLUOstar® Omega (BMG LABTECH, NC) microplate reader. The samples fluorescence was read at every 5 minutes for 24 cycles with excitation and emission wavelengths of 584 and 620 nm, respectively. Plots were generated using average values from the experiments using GraphPad Prism 7.

[12] = tested on: S. aureus USA300; test: Bacterial membrane depolarization (DiBAC4(3)); assay type: cell-based; settings: 3.1, 6.25, 12.5, and 25 μM; 40 minutes
Protocol: The experiment was conducted as described (Marks, et al. (2013) PLOS One 8:e63158). In brief, an overnight culture of S. aureus USA300 was subcultured in a fresh TSB medium and grown to the exponential phase. Cells were spun using centrifugation, washed 2× with PBS, resuspended in twice the volume of PBS containing 25 mM glucose, and incubated at 37° C. for 15 minute. For membrane depolarization measurements, 500 nM (final concentration) of the dye DiBAC4 (3) bis(1,3-dibutylbarbituric acid) trimethine oxonol (ANASPEC, CA) was added, and the reaction mixture was vortexed gently. Aliquots of 90 μL of the energized bacteria solution were loaded to the wells, and the plate was fed into a FLUOstar® Omega microplate reader. Fluorescence was read for 20 minutes at excitation and emission wavelengths of 485 and 520 nm, respectively, to get dye normalization. Then, 10 μL of the peptide solution was added and gently mixed. Fluorescence readings were recorded for 40 minutes, where Triton™ X-100 (0.1%) was used as a positive control.

[13] = tested on: E. coli ATCC 25922; assay type: cell-based
Protocol: as §1, §2

Structure (SMILES) | HC50 [1] | MIC (μM) KP [2] | Minimal inhibitory concentration, USA400 [3] | Minimal inhibitory concentration, USA200 [4] | Minimal inhibitory concentration, Mu50 [5] | Minimal inhibitory concentration, Newman [7] | also measured
CCCCCCCC(=O)N[C@@H](CCCCN)C(=O)N[C@@H](CCCNC(=N)N)C(=O)N[C@H](C(=O)N[C@@H](Cc1c[nH]c2ccccc12)C(=O)N[C@@H](CCC(N)=O)C(=O)N[C@@H](CCCNC(=N)N)C(=O)N[C@H](C(=O)N[C@@H](CCCCN)C(=O)N[C@@H](CC(=O)O)C(=O)N[C@@H](Cc1ccccc1)C(N)=O)[C@@H](C)CC)[C@@H](C)CC [Peptide C8-KR10] (Octanoyl-KRIWQRIKDF-NH2) | 250 µM | 25 µM (≈ 37.9 µg/mL) | 3.1 µM (≈ 4.7 µg/mL) | 6.2 µM (≈ 9.39 µg/mL) | 6.2 µM (≈ 9.39 µg/mL) | 6.2 µM (≈ 9.39 µg/mL) | MIC against clinical strains of S. aureus [6]: 1.6 to 6.2 µM; relative toxicity to HaCaT cells [8]: slightly less toxic than C8-KR10d; MIC (μM) SA ([9]; USA300): 3.1 to 6.2 µM; Minimal inhibitory concentration (MIC), pH = 6.8 ([9]; USA300, pH 6.8): 12.5 μM
CCOc1ccc2ccccc2c1C(=O)N[C@@H]1C(=O)N2[C@@H]1SC(C)(C)[C@@H]2C(=O)O [nafcillin, reference compound] | – | – | – | – | – | – | MIC increase in multiple passage experiment [10]: over 30 fold
CO[C@H]1/C=C/O[C@@]2(C)Oc3c(C)c(O)c4c(O)c(cc(O)c4c3C2=O)NC(=O)/C(C)=C\C=C\[C@H](C)[C@H](O)[C@@H](C)[C@@H](O)[C@@H](C)[C@H](OC(C)=O)[C@@H]1C [rifamycin, reference compound] | – | – | – | – | – | – | membrane permeation (propidium iodide fluorescence) [11]: unable to achieve the same effect
CCCCCCCCCC(=O)N[C@@H](Cc1c[nH]c2ccccc12)C(=O)N[C@H](CC(N)=O)C(=O)N[C@@H](CC(=O)O)C(=O)N[C@@H]1C(=O)NCC(=O)N[C@@H](CCCN)C(=O)N[C@@H](CC(=O)O)C(=O)N[C@H](C)C(=O)N[C@@H](CC(=O)O)C(=O)NCC(=O)N[C@H](CO)C(=O)N[C@@H]([C@H](C)CC(=O)O)C(=O)N[C@@H](CC(=O)c2ccccc2N)C(=O)O[C@@H]1C [daptomycin, reference compound] | – | – | – | – | – | – | membrane depolarization ability (order) [12]: Triton™ X-100>17BIPHE2>C10-KR8d>daptomycin
CCCCCCCC(=O)N[C@H](CCCCN)C(=O)N[C@H](CCCNC(=N)N)C(=O)N[C@@H](C(=O)N[C@H](Cc1c[nH]c2ccccc12)C(=O)N[C@H](CCC(N)=O)C(=O)N[C@H](CCCNC(=N)N)C(=O)N[C@@H](C(=O)N[C@H](CCCCN)C(=O)N[C@H](CC(=O)O)C(=O)N[C@H](Cc1ccccc1)C(N)=O)[C@H](C)CC)[C@H](C)CC [Peptide C8-KR10d] (Octanoyl-[dK][dR][dI][dW][dQ][dR][dI][dK][dD][dF]-NH2) | 150 µM | 12.5 µM (≈ 18.9 µg/mL) | 3.1 µM (≈ 4.7 µg/mL) | 3.1 µM (≈ 4.7 µg/mL) | 3.1 µM (≈ 4.7 µg/mL) | 3.1 µM (≈ 4.7 µg/mL) | MIC (μM) EC [13]: 6.2 µM (≈ 9.39 µg/mL)
